# From US20240277727A1, “CHARGED ION CHANNEL BLOCKERS AND METHODS FOR USE” (Nocion Therapeutics, Inc., priority 2019, published 2024)
# What was measured:
# [1] = target: T1, NaV1.7 (Homo sapiens, UniProt Q15858); test: Intracellular (internal block) inhibition of NaV1.7 current, whole cell patch clamp; type: cell-based; details: compound in internal solution; for inhibition at 1 µM: read-out: Nav 1.7 Intracellular Inhibition
# T1 construct: expressed in transfected cells; tetracycline-inducible, kept under hygromycin and blasticidin selection
# T1 sequence (Q15858 whole entry): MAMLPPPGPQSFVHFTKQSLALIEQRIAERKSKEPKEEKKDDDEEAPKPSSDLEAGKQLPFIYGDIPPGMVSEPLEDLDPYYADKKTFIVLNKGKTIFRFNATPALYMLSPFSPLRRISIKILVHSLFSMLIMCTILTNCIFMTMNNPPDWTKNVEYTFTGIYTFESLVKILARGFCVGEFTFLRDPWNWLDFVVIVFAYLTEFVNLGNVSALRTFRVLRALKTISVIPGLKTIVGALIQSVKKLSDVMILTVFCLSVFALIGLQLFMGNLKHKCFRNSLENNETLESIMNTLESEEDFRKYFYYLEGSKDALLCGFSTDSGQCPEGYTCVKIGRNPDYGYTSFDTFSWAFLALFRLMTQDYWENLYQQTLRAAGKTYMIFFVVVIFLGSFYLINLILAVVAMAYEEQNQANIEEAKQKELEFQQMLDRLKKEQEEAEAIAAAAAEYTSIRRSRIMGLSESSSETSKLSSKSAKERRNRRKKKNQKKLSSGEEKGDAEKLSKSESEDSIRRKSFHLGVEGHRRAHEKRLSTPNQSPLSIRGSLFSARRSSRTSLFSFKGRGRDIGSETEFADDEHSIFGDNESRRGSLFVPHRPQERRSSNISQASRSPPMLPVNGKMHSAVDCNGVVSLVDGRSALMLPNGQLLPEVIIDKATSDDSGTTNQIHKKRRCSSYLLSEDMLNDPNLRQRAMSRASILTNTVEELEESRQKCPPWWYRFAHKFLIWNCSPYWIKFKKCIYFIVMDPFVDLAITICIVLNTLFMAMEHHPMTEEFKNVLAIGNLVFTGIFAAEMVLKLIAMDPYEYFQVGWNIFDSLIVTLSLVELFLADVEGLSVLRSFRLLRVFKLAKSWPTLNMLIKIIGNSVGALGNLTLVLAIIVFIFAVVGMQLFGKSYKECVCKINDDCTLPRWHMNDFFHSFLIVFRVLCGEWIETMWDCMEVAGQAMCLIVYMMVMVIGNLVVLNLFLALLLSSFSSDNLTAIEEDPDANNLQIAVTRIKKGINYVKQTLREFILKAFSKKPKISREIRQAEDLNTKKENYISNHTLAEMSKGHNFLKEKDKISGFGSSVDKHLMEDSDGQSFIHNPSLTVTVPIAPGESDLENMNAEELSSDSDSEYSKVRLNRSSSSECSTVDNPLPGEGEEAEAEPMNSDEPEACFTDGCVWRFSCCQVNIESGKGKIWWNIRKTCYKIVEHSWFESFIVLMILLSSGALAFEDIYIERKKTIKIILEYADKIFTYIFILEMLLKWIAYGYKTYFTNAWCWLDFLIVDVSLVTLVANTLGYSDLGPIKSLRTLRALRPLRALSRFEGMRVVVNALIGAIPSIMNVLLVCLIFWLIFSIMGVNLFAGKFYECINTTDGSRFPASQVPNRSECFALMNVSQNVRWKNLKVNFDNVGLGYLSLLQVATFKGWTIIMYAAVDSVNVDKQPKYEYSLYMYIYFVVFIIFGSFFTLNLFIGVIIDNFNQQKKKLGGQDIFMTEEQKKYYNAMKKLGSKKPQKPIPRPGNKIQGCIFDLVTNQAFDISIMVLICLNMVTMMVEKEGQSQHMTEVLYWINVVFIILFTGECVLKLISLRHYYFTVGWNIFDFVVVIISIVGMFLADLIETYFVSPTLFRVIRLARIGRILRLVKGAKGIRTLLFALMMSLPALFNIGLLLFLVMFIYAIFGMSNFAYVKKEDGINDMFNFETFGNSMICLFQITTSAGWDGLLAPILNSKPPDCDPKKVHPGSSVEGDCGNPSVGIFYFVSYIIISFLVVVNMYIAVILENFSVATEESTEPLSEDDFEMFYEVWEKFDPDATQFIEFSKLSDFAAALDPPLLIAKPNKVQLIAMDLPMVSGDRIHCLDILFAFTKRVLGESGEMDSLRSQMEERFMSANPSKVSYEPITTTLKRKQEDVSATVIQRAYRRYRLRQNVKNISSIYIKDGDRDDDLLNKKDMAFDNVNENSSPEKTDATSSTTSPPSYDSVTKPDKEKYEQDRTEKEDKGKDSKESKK
# Method: (§1) NaV1.7 was expressed upon induction with tetracycline. Cells were cultured in DMEM containing 10% dialyzed Fetal Bovine Serum (VWR, Radnor, PA), 1% Glutamax (VWR, Radnor, PA), 1% Penicillin-Streptomycin (VWR, Radnor, PA), 100 mg/L Hygromycin (Thermo Fisher Scientific, Waltham, MA and 5 mg/L Blasticidin (Alfa Aesar, Haverhill, MA). Cells were grown and maintained at 37° C. in a humidified environment containing 10% CO2 in air. Cells were detached from the culture flask for passage and harvested using 0.05% Trypsin-EDTA (Thermo Fisher Scientific, Waltham, MA). To induce NaV1.7, cells were induced with tetracycline (0.1-1 μg/mL, IBI Scientific, Peosta, IA) the day before recording and plated onto 24-well plates. Cells were washed with DPBS (VWR, Radnor, PA), trypsinized and then triturated five times in 10 mL of growth media to break apart cell aggregates. For one 24-well plate, 2 mL of cell suspension was mixed with 23 mL of fresh growth media and 0.1-1 μg/mL tetracycline added. 1 ml of mixed media with cells was then added to each well of a 24-well plate, with a 12 mm coverslip already placed in the bottom of the well. Cells were then incubated in 37° C. and 10% CO2 overnight.
# The intracellular solution contained the following (in mM) CsCl 135, NaCl 10, EGTA 10, HEPES 10, MgCl2 2, adjusted to pH 7.2 with CsOH. The external solution was a normal Ringer solution containing (in mM) NaCl 155, HEPES 10, glucose 10, KCl 3.5, CaCl2 1.5, MgCl2 1 adjusted to pH 7.4 with NaOH. CsCl is from Alfa Aesar, Haverhill, MA. All other chemicals are from Sigma-Aldrich, St. Louis, MO. In order to test the degree of internal block by test compounds the compounds were dissolved in internal solution at the indicated test concentration. […] In order to test the degree of external block by test compounds the compounds were dissolved in external solution at the indicated test concentration.
# 18-24 hours after cells were induced with tetracycline, coverslips were placed into a chamber filled with Normal Ringer solution at room temperature and the chamber placed on a microscope. Pipettes were pulled from borosilicate glass on a P97 puller (Sutter Instrument, Novato, CA) and polished with a MF-830 Microforge (Narishige International USA, Inc, Amityville, NY) to have a resistance of 1.5-2.5 MΩ when filled with CsCl internal solution at room temperature. Healthy cells (those that are round and translucent with no visible blemishes) were chosen for seal formation. A seal was formed between the pipette and the cell, and a brief pulse of suction was used to “break in” and establish the whole-cell configuration. The membrane potential was held at −100 mV before the voltage protocol began. Only cells with series resistance between 1.5-5 MΩ were retained for analysis. The voltage protocol was as follows: Cells were held at −100 mV for 12 ms followed by a hyperpolarizing step to −105 mV for 12 ms to monitor the leak. Cells were then stepped back to −100 mV for 40 ms. Cells were then depolarized to −20 mV for 10 ms and then returned to −100 mV for 26 ms.
# Once the recording was started, the voltage protocol was run at 30 second intervals for 5 minutes to get a stable baseline. This was followed by four 30-second periods of 5 Hz stimulation of the same voltage protocol separated by 1 minute of rest which was then followed by 0.33 Hz stimulation after the last train. Currents were recorded using PatchMaster software with Heka EPC10 (HEKA Electronics, Lambrecht, Germany). Only cells with inward current amplitudes at −20 m V between 400 pA and 4 nA were accepted. In addition, cells having leak currents greater than 10% of their current amplitudes were discarded.
# (§2) The data was plotted using the Patchmaster software (HEKA Electronics, Lambrecht, Germany) and analyzed by plotting the minimum current during the voltage step to −20 m V (peak inward current) as a function of time. […]
# [2] = PAMPA membrane permeability assay; type: in vitro ADME; details: pH 7.4, GIT lipid, 4 hours incubation
# Method: The PAMPA assay (pION, Inc., Woburn MA) was used to determine the ability of compounds of the invention to cross an artificial lipid membrane by passive diffusion. Test compounds were dissolved in DMSO (10 mM) and diluted 200-fold in buffer (pION Inc., pH 7.4) to provide 50 μM stock solutions. Buffer (150 μL) was added to a UV blank plate and stock solutions (150 μL) were transferred to a UV reference plate. The blank and reference spectrum were read using a spectrophotometer. Stock solutions (200 μL) were added to the donor plate of the PAMPA sandwich plate and an accept plate painted with GIT lipid (pION Inc, 5 μL) was placed on top. Buffer (200 μL) was added to the acceptor plate and the PAMPA sandwich plate was incubated for 4 hours. Aliquots (150 μL) from the acceptor plate were added to a UV plate and read as acceptor spectrum. Aliquots (150 μL) of the donor solutions were added to a UV analysis plate and read as donor spectrum. The permeability coefficient of test compounds was calculated using PAMPA Explorer™ software (version 3.5.0.4) based on the AUC of the reference plate, the donor plate, and the acceptor plate.
# [3] = target: T1, NaV1.7; test: Extracellular (external block) inhibition of NaV1.7 current, whole cell patch clamp; type: cell-based; details: compound in external solution
# Method: as §1, with “For one 24-well plate, 2 mL of cell suspension was mixed with 23 mL of fresh growth media and 0.1-1 μg/mL tetracycline added. 1 ml of mixed media with cells was then added to each well of a 24-well plate, with a 12 mm coverslip already placed in the bottom of the well. Cells were then incubated in 37° C. and 10% CO2 overnight.” left out
# Once the recording was started, the voltage protocol was run at 30 second intervals for 5 minutes to get a stable baseline. […] Currents were recorded using PatchMaster software with Heka EPC10 (HEKA Electronics, Lambrecht, Germany). […]
# as §2
inhibition at 1 µM [1] [%],PAMPA (10^−6 cm/s) [2],inhibition at 3 µM ([1]; test concentration of 3 μM) [%],inhibition at 3 µM ([3]; test concentration of 3 μM) [%],"Papp at 4 h, 50 µM ([2]; PAMPA) [×10⁻⁶ cm/s]",inhibition at 1 µM ([3]; test concentration of 1 μM) [%],Structure (SMILES)
70 to 90,++ (“++” (0.1-2.0 10^−6 cm/s)),> 95,< 40,0.4,,"COC(=O)c1scc(C)c1NC(=O)C[N+]1(Cc2ccccc2)CCCCCC1.[Br-] [Compound-31, 1-benzyl-1-(2-((2-(methoxycarbonyl)-4-methylthiophen-3-yl)amino)-2-oxoethyl) azepan-1-ium bromide]"
> 90,+ (“+” (<0.1 10^−6 cm/s)),,,,< 40,CCOC(=O)c1scc(C)c1NC(=O)C[N+]1(Cc2ccccc2)CCCCCC1.[Br-] [D]
40 to 70,+ (“+” (<0.1 10^−6 cm/s)),,,,,Cc1csc(C)c1NC(=O)C[N+]1(Cc2ccccc2)CCCCCC1.[Br-] [H]

# More lines, now with the values behind:
Structure (SMILES),inhibition at 1 µM [1] [%],PAMPA (10^−6 cm/s) [2],inhibition at 3 µM ([1]; test concentration of 3 μM) [%],inhibition at 3 µM ([3]; test concentration of 3 μM) [%],"Papp at 4 h, 50 µM ([2]; PAMPA) [×10⁻⁶ cm/s]",inhibition at 1 µM ([3]; test concentration of 1 μM) [%]
COC(=O)c1scc(C)c1NC(=O)C[N+]1(Cc2ccccc2)CCCC1.[Br-] [A],40 to 70,+ (“+” (<0.1 10^−6 cm/s)),,,,
COC(=O)c1scc(C)c1NC(=O)C[N+]1(Cc2ccccc2)CCCCC1.[Br-] [B],40 to 70,++ (“++” (0.1-2.0 10^−6 cm/s)),,,,
CCCOC(=O)c1scc(C)c1NC(=O)C[N+]1(Cc2ccccc2)CCCCCC1.[Br-] [C],> 90,+ (“+” (<0.1 10^−6 cm/s)),,,,
Cc1csc(C(=O)OC(C)C)c1NC(=O)C[N+]1(Cc2ccccc2)CCCCCC1.[Br-] [E],70 to 90,++ (“++” (0.1-2.0 10^−6 cm/s)),,,,
CC[N+]1(CC(=O)Nc2c(C)csc2C(=O)OC)CCCC(c2ccccc2)C1.[I-] (stereo not shown) [F],70 to 90,+ (“+” (<0.1 10^−6 cm/s)),,,,
CCC(C(=O)Nc1c(C)csc1C(=O)OC)[N+]1(Cc2ccccc2)CCCCC1.[Br-] (stereo not shown) [G],40 to 70,+ (“+” (<0.1 10^−6 cm/s)),,,,
